Laboratory results published in patent US20150291565A1, “INDOLE COMPOUNDS AND THEIR USE AS ANTIMICROBIALS” (Memorial Sloan-Kettering Cancer Center, priority 2012, published 2015).
Values after ≈ are worked out from the molar mass of the structure shown. Values joined by “and” are separate entries in the source; they are usually repeats but may differ in a detail not shown here. Equal entries are not always repeated. Where two headings read alike, the source gives them in different places.

How the values were obtained:
[1] = test system: E. coli ATCC 25922; test: Broth dilution MIC, E. coli ATCC 25922; format: cell-based; conditions: Escherichia coli
[2] = test system: S. pneumoniae ATCC 700674 (PRSP); test: Broth dilution MIC, S. pneumoniae ATCC 700674; format: cell-based; conditions: Streptococcus pneumoniae
[3] = test system: C. albicans ATCC 14053; test: Broth dilution MIC, C. albicans ATCC 14053; format: cell-based; conditions: Candida albicans, ATCC14053; Table 1; range 64 down to 0.12 μg/ml
In short: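 Broth microdilution per NCCLS M7-A6, 1:2 serial dilutions from a 256 μg/ml working stock. C. albicans inoculum set to 70–75% transmittance at 530 nm, diluted 1/500 in RPMI+MOPS, incubated 18 h at 35° C; growth read at 650 nm and confirmed visually.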

[4] = test system: S. aureus (MRSA) (ATCC33591); test: Septicemia survival model in neutropenic CD1 mice, MRSA; format: in vivo
[5] = test system: M. smegmatis (mc2155) Beta-Galactosidase (B-gal) reporter gene; test: HTS screen with Beta-Galactosidase reporter gene in M. smegmatis; format: cell-based; conditions: Mycolicibacterium smegmatis
[6] = test system: S. pneumoniae (ATCC 6303); test: Thigh infection model in neutropenic CD1 mice, S. pneumoniae; conditions: 24 hours; for Log reduction: vs vehicle

Work on `c1cc(C2=NCCN2)ccc1Nc1ccc(-c2cc3ccc(C4=NCCN4)cc3[nH]2)cc1` [SKI-1] yielded an MIC ([1]; ATCC 25921 / ATCC 25922, Table 2, broth dilution MIC in ug/ml, read-out: MIC E. coli ATCC 25921) of 1 µg/mL (≈ 2.38 µM), an MIC ([1]; ATCC25922, Table 1, range 64 down to 0.12 μg/ml, read-out: MIC E. coli ATCC 25922) of 1 µg/mL (≈ 2.38 µM) and an MIC ([1]; ATCC25922, Table 4, broth dilution MIC according to CLSI standards (NAEJA), read-out: MIC E. coli ATCC 25922) of 0.5 µg/mL (≈ 1.19 µM). The MIC ([2]; Table 1, range 64 down to 0.12 μg/ml, read-out: MIC S. pneumoniae ATCC 700674) was ≤ 0.12 µg/mL, the MIC ([2]; Table 2, broth dilution MIC in ug/ml, read-out: MIC S pneumonia ATCC 700674 PRSP) was 0.12 µg/mL (≈ 0.285 µM) and the MIC ([2]; Table 3, starting at 4 μg/ml, read-out: MIC S. pneumoniae ATCC 700674) was 0.12 µg/mL (≈ 0.285 µM). The MIC ([2]; Table 4, broth dilution MIC according to CLSI standards (NAEJA), read-out: MIC PRSP S. pneumoniae ATCC 700674) was 0.03 µg/mL (≈ 0.0713 µM), the MIC [3] was 1 µg/mL (≈ 2.38 µM) and the “Day by which all the mice died” value ([4]; 10 mg/kg) was ≤ 3 days. For the same compound, the “Percent Survival Day 1” value ([4]; 10 mg/kg BID IP) was 100%, the “Percent Survival Day 2” value ([4]; 10 mg/kg BID IP) was 100% and the “Percent Survival Day 3” value ([4]; 10 mg/kg BID IP) was 0%. The “Percent Survival Day 4” value ([4]; 10 mg/kg BID IP) was 0%, the “Percent Survival Day 5” value ([4]; 10 mg/kg BID IP) was 0% and the “Percent Survival Day 6” value ([4]; 10 mg/kg BID IP) was 0%. The “Percent Survival Day 7” value ([4]; 10 mg/kg BID IP) was 0%, the “Day by which all the mice died” value ([4]; 20 mg/kg) was ≤ 4 days and the “Percent Survival Day 1” value ([4]; 20 mg/kg BID IP) was 100%. For the same compound, the “Percent Survival Day 2” value ([4]; 20 mg/kg BID IP) was 100%, the “Percent Survival Day 3” value ([4]; 20 mg/kg BID IP) was 80% and the “Percent Survival Day 4” value ([4]; 20 mg/kg BID IP) was 0%. The “Percent Survival Day 5” value ([4]; 20 mg/kg BID IP) was 0%, the “Percent Survival Day 6” value ([4]; 20 mg/kg BID IP) was 0% and the “Percent Survival Day 7” value ([4]; 20 mg/kg BID IP) was 0%. For the same compound, the IC50 ([5]; suffix 250 not explained, read-out: IC50_250) was 790 nM, the IC50 ([5]; suffix 251 not explained, read-out: IC50_251) was 730 nM and the IC50 ([5]; suffix 381 not explained, read-out: IC50_381) was 2540 nM. The IC50 ([5]; suffix 569 not explained, read-out: IC50_569) was 3670 nM, the “Mean bacterial tissue burden (log10/thigh)” value ([6]; 10 mg/kg BID IP) was 6.7143 log10/thigh and the Log reduction ([6]; 10 mg/kg BID IP, listed as 356313, 10 mg/kg) was 2.40 Log and 2.3984 Log. For the same compound, the “Mean bacterial tissue burden (log10/thigh)” value ([6]; 20 mg/kg BID IP) was 5.6260 log10/thigh and the Log reduction ([6]; 20 mg/kg BID IP, listed as 356313, 20 mg/kg) was 3.49 Log and 3.4867 Log.
